PubChem BioAssay (NCI)
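In this assay, cells in 96-well plates receive the compound at five concentrations for 48 hours. Endpoints are linearly interpolated between the surrounding concentrations. GI50: concentration for 50% inhibition of growth. TGI marks complete inhibition of growth.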

Key:
Experiment in all cases: NCI-60 cell line screen, 48 h
TK-10 renal = system: TK-10 renal
T-47D breast = system: T-47D breast
MOLT-4 leukemia = system: MOLT-4 leukemia
M14 melanoma = system: M14 melanoma
LOX IMVI melanoma = system: LOX IMVI melanoma
MCF7 breast = system: MCF7 breast
OVCAR-8 ovarian = system: OVCAR-8 ovarian
786-0 renal = system: 786-0 renal
MDA-MB-468 breast = system: MDA-MB-468 breast
SK-MEL-2 melanoma = system: SK-MEL-2 melanoma
CCRF-CEM leukemia = system: CCRF-CEM leukemia
HCT-116 colon = system: HCT-116 colon
HOP-92 NSCLC = system: HOP-92 NSCLC
SF-295 CNS = system: SF-295 CNS
HOP-62 NSCLC = system: HOP-62 NSCLC
UACC-257 melanoma = system: UACC-257 melanoma
NCI-H23 lung = system: NCI-H23 lung
U251 CNS = system: U251 CNS
RPMI-8226 leukemia = system: RPMI-8226 leukemia
HT29 colon = system: HT29 colon
EKVX NSCLC = system: EKVX NSCLC
CAKI-1 renal = system: CAKI-1 renal
SF-539 CNS = system: SF-539 CNS
HCT-15 colon = system: HCT-15 colon
UO-31 renal = system: UO-31 renal
KM12 colon = system: KM12 colon
UACC-62 melanoma = system: UACC-62 melanoma
ACHN renal = system: ACHN renal
SF-268 CNS = system: SF-268 CNS

Cn1cc(NC(=O)c2cc(NC(=O)c3ccc(/C=C/c4ccccc4)cc3)cn2C)cc1C(=O)NCCCN1CCOCC1
GI50 (TK-10 renal): 15.1 µM | TGI (TK-10 renal): > 28 µM | GI50 (T-47D breast): 5.59 µM | TGI (T-47D breast): > 28 µM | GI50 (MOLT-4 leukemia): 7.96 µM | TGI (MOLT-4 leukemia): > 28 µM | GI50 (M14 melanoma): 14.7 µM | TGI (M14 melanoma): > 28 µM | GI50 (LOX IMVI melanoma): 4.59 µM | TGI (LOX IMVI melanoma): 9.32 µM | GI50 (MCF7 breast): 3.57 µM | TGI (MCF7 breast): > 28 µM | GI50 (OVCAR-8 ovarian): 7.21 µM | TGI (OVCAR-8 ovarian): > 28 µM | GI50 (786-0 renal): 8.59 µM | TGI (786-0 renal): > 28 µM | GI50 (MDA-MB-468 breast): 5.88 µM | TGI (MDA-MB-468 breast): 18.5 µM | GI50 (SK-MEL-2 melanoma): 4.94 µM | TGI (SK-MEL-2 melanoma): 16.3 µM | GI50 (CCRF-CEM leukemia): 5.74 µM | TGI (CCRF-CEM leukemia): > 28 µM | GI50 (HCT-116 colon): 7.39 µM | TGI (HCT-116 colon): > 28 µM | GI50 (HOP-92 NSCLC): 3.15 µM | TGI (HOP-92 NSCLC): 14.9 µM | GI50 (SF-295 CNS): 17.8 µM | TGI (SF-295 CNS): > 28 µM | GI50 (HOP-62 NSCLC): 9.43 µM | TGI (HOP-62 NSCLC): > 28 µM | GI50 (UACC-257 melanoma): 19.2 µM | TGI (UACC-257 melanoma): > 28 µM | GI50 (NCI-H23 lung): 13.4 µM | TGI (NCI-H23 lung): > 28 µM | GI50 (U251 CNS): 10.5 µM | TGI (U251 CNS): > 28 µM | GI50 (RPMI-8226 leukemia): 3.35 µM | TGI (RPMI-8226 leukemia): > 28 µM | GI50 (HT29 colon): 4.85 µM | TGI (HT29 colon): 19.6 µM | GI50 (EKVX NSCLC): 16.6 µM | TGI (EKVX NSCLC): > 28 µM | GI50 (CAKI-1 renal): 15.3 µM | TGI (CAKI-1 renal): > 28 µM | GI50 (SF-539 CNS): 5.8 µM | TGI (SF-539 CNS): 16.5 µM | GI50 (HCT-15 colon): 7.41 µM | TGI (HCT-15 colon): > 28 µM | GI50 (UO-31 renal): 15.2 µM | TGI (UO-31 renal): > 28 µM | GI50 (KM12 colon): 8.07 µM | TGI (KM12 colon): > 28 µM | GI50 (UACC-62 melanoma): 21.2 µM | TGI (UACC-62 melanoma): > 28 µM | GI50 (ACHN renal): 18.6 µM | TGI (ACHN renal): > 28 µM | GI50 (SF-268 CNS): 21.5 µM | TGI (SF-268 CNS): > 28 µM
